Values quoted from earlier work in US8529939B2, “Mucoadhesive drug delivery devices and methods of making and using thereof” (Gel-Del Technologies, Inc., priority 2003, dated 2013).

[1] = contact time 30 s, previous study

- tensile stress [1]: 0.017 N/cm^2
- tensile work [1]: 0.015 mJ/cm^2
- bioadhesive properties (in words) (powders, control reference): no bioadhesive properties
SMILES: OC[C@@H](O)[C@@H](O)[C@H](O)[C@H](O)CO [Mannitol, mannitol]
